The source made the active and inactive calls. No rule for the calls is given here.

In this test the target is glucose-6-phosphate dehydrogenase-6-phosphogluconolactonase (Plasmodium falciparum 3D7). Kind of test: inhibition of P. falciparum G6PD activity – biochemical, kinetic NADPH detection, orthogonal assay, dose response (AID 540269). The note with it: purified PfG6PD-6PGL.
What is called IC50 is the concentration that inhibits the measured activity by half. Regarding `O=[N+]([O-])c1ccc(-[n+]2ccc3ccccc3c2)c([N+](=O)[O-])c1`, the IC50 is > 80 µM (inactive).
The value for `COc1ccc(C(=O)Nc2nnc(S(=O)(=O)N3CCOCC3)s2)cc1` was 32.8 µM; that for `CCOC(=O)Nc1ccc(NCc2ccc(F)cc2)nc1N` was > 80 µM (inactive); that for `COC(=O)CCC(=O)OC1(C)C(=O)C2=CN(c3ccccc3)C(c3ccc(OC)cc3)=CC2=C(Br)C1=O` (stereo unspecified) was > 80 µM (inactive).
As to `C/C(Cn1nnc([N+](=O)[O-])n1)=N\NC(=O)c1ccccc1O`, the 50% inhibitory concentration (IC50) is 46.3 µM.
In the case of `N#C/C(C(=O)Nc1ccc(Cl)cc1)=C(/S)Nc1ccccc1`, the concentration for half-maximal inhibition (IC50) was 41.5 µM.
The value for `CC(=O)Nc1ccc2c(=O)n(-c3ccccc3)sc2c1` was 15.6 µM; that for `Cc1cc(C)c2c(=O)n(CC(=O)N3CCC(N4CCCCC4)CC3)sc2n1` was 48.4 µM; that for `Cc1cccc(OCC(=O)NCC(=O)N/N=C/c2ccccc2)c1` was > 80 µM (inactive).
The value for `Cc1ccc(S(=O)(=O)C=CS(=O)(=O)c2ccc(C)cc2)cc1` was 41.2 µM.
Consider `Cc1nnc(N/N=C/c2ccc(-c3ccccc3F)o2)n1N`, for which the IC50 was 32.1 µM.
The value for `O=S(c1ccccc1O)S(=O)c1ccccc1O` (stereo unspecified) was 36.4 µM; that for `O=S(=O)(Nc1cc(Sc2ncn[nH]2)c(O)c2ccccc12)c1ccccc1` was 23.9 µM.
The value for `O=C(Cn1sc2ccccc2c1=O)Nc1ccc(Cl)cc1` was 16 µM.
The value for `CN1CCN(C(=S)C(=O)Nc2ccc(Br)cc2)CC1` was 57.7 µM; that for `COc1ccc(CN(C)S(=O)(=O)c2nnc(NC(=O)c3ccc(C)cc3)s2)cc1OC` was 29.9 µM.
Take `O=C(O)c1cc(N2C(=O)C=CC2=O)cc(N2C(=O)C=CC2=O)c1`: the IC50 is 19.6 µM.
The value for `Nc1ccc2c3c(cccc13)-c1ccccc1-2` was 41.3 µM; that for `CCc1cc(-c2n[nH]c(C)c2-c2nc3ccccc3n2C)c(O)cc1O` was 9.3 µM; that for `Cc1nc2c(o1)C(=O)c1ccccc1C2=Nc1ccccc1` was > 80 µM (inactive).
The value for `COc1ccc(/C=C/c2nc3ccccc3n2C)cc1` was 17.7 µM.
Regarding `O=c1c2ccccc2sn1-c1ccc(S(=O)(=O)N2CCCC2)cc1`, the concentration for half-maximal inhibition (IC50) is 28.4 µM.
The value for `CCOC(=O)c1sc(NC(=O)CSc2nnc(Cc3ccccc3)o2)c(C#N)c1C` was > 80 µM (inactive); that for `c1ccc(-c2nc(N3CCOCC3)s[n+]2-c2ccccc2)cc1` was > 80 µM (inactive); that for `Cc1ccccc1-n1c(-c2ccc3ccccc3n2)n[nH]c1=S` was 51.3 µM.
The value for `CCOc1ccccc1NS(=O)(=O)c1c(C)noc1C` was > 80 µM (inactive).
The value for `COc1cc(/C=C2\CC/C(=C\c3cc(OC)c(O)c(OC)c3)C2=O)cc(OC)c1O` was > 80 µM (inactive).
With `COC(=O)[C@H](C)NC(=O)c1cc2c(cn1)[nH]c1ccccc12`, the half-maximal inhibitory concentration (IC50) is 51 µM.
On to `COC1=C(N)C(=O)c2nc(C)ccc2C1=O`, for which the IC50 is > 80 µM (inactive).
The value for `CCOC(=O)c1c(C)n(-c2ccc(C)cc2)c2c(C(C(C)=O)C(=O)O)c(Br)c(O)c(O)c12` (stereo unspecified) was 57.4 µM; that for `Cc1ccc(-c2c(C(=O)N/N=C/c3ccc(C)o3)nnn2-c2nonc2N)cc1` was 51.3 µM.
The value for `COc1cc(N)c2ncsc2c1` was > 80 µM (inactive); that for `CCCCCCCCn1sccc1=O` was 66.4 µM.
The value for `O=C(O)C(Cc1ccccc1)N1C(=O)C=CC1=O` (stereo unspecified) was 36.2 µM; that for `CN1CCc2cc(O)cc3c2[C@H]1Cc1ccc(O)c(O)c1-3` was > 80 µM (inactive); that for `O=C1OC(c2ccc3ccccc3c2O)(c2ccc3ccccc3c2O)c2ccccc21` was > 80 µM (inactive).
On to `CN1CCN(C(=O)c2sc(=S)n(-c3ccccc3)c2N)CC1`, for which the half-maximal inhibitory concentration (IC50) is 50.3 µM.
The value for `O=S(=O)(Nc1c(O)ccc2ccccc12)c1ccccc1` was 9.3 µM.
The value for `CCC1(C)CC(C(N)=S)CCO1` (stereo unspecified) was > 80 µM (inactive); that for `O=C(CBr)c1ccc([N+](=O)[O-])c(CS(=O)(=O)c2ccc(Cl)cc2)c1` was > 80 µM (inactive).
The value for `C[C@H](NC(=O)c1cc2c(cn1)[nH]c1ccccc12)C(=O)O` was > 80 µM (inactive); that for `Cc1ccc(/C=C/C(=O)N2CCN(S(=O)(=O)c3ccc(C)c(C)c3)CC2)o1` was > 80 µM (inactive).
Turning to `C[C@]12CC[C@@H]3c4cc(O)c(O)cc4CC[C@H]3[C@@H]1CC[C@@H]2O`, the 50% inhibitory concentration (IC50) is 25 µM.
The value for `Cc1[nH]c2ccccc2c1/C=N/Nc1nncn1N` was > 80 µM (inactive); that for `O=C(N/N=C/c1cccc([N+](=O)[O-])c1)C(=O)N1CCCCCC1` was > 80 µM (inactive); that for `O=[N+]([O-])c1ccc(Sc2cccc3cccnc23)c2cccnc12` was > 80 µM (inactive).
The value for `COc1ccc(CN(C)S(=O)(=O)c2nnc(NC(=O)c3cccc(C)c3)s2)cc1OC` was 22.2 µM; that for `Cc1ccc(NC(=O)c2cc(N3C(=O)C=CC3=O)ccc2N2CCOCC2)cc1Cl` was > 80 µM (inactive).
The value for `COc1cc(NCCCn2cnc3c(OCc4ccccc4)ncnc32)cc(OC)c1OC` was > 80 µM (inactive).
With `c1nc(SSc2ncnc3nc[nH]c23)c2[nH]cnc2n1`, the IC50 was 27 µM.
The value for `Cc1cc(C)c2c(=O)n(CC(=O)Nc3ccc(Cl)cc3)sc2n1` was > 80 µM (inactive).
The value for `ClC(Cl)(c1nnnn1-c1ccccc1)c1nnnn1-c1ccccc1` was 61.2 µM.
With `COc1cc(Sc2ccc(C)cc2)c(OC)cc1N`, the IC50 is > 80 µM (inactive).
The value for `Cc1ccsc1/C=N/NC(=O)c1cccc(S(=O)(=O)Nc2ccccc2Cl)c1` was > 80 µM (inactive); that for `CCn1c(=O)n(CC)c2cc(N3CCCC3)c(NC(=O)c3cccc(C)c3)cc21` was > 80 µM (inactive); that for `COc1cccc(/C=N/NC(=O)c2c(C)nc3ccc(Br)cn23)c1` was 52.3 µM.
For the compound `Cc1cc(C(=O)O)ccc1-n1c(C)cc(C=C2C(=O)c3ccccc3C2=O)c1C`, the IC50 was > 80 µM (inactive).
With `CCOC(=O)Cc1csc(-n2sc3ccccc3c2=O)n1`, the half-inhibitory concentration (IC50) is 31.3 µM.
Regarding `O=C1C=CC(=O)N1CCNc1ncc(C(F)(F)F)cc1Cl`, the IC50 was 34.8 µM.
The value for `Cc1ccc(SC2=C(Sc3ccc(C)cc3)C(=O)c3ccccc3C2=O)cc1` was 34.7 µM; that for `O=C(CCc1ccc(O)c(O)c1)N/N=C/c1cc2c(cc1[N+](=O)[O-])OCO2` was 16.6 µM.
Turning to `COc1cc(C(=O)O/N=C2/C=C(C)C(=O)C=C2C)cc(OC)c1OC`, the IC50 is > 80 µM (inactive).
`COc1cc(CNc2ccc(N3CCCC3)cc2)ccc1OCc1ccccc1F`: the IC50 is > 80 µM (inactive).
Turning to `O=C1NC(=O)N(c2ccccc2)C(=O)/C1=C/c1ccc([N+](=O)[O-])s1`, the IC50 was > 80 µM (inactive).
Turning to `CCn1c2ccccc2c2cc(/C=N/n3cn[nH]c3=S)ccc21`, the IC50 is 9.07 µM.
For the compound `CCS(=O)(=O)N1CCN(c2ccc([N+](=O)[O-])c(NC(C)c3ccccc3)c2)CC1` (stereo unspecified), the IC50 was > 80 µM (inactive).
Turning to `CC(C)c1nnc(NC(=O)c2cc3ccccc3o2)s1`, the IC50 is 31.2 µM.
The value for `Fc1cccc(Cl)c1CNc1ccc(N2CCCC2)cc1` was > 80 µM (inactive); that for `Cc1ccnc(-n2sc3ccccc3c2=O)n1` was 26.4 µM.
The value for `CC(=O)OCC1(C)CN(c2ccccc2)NC1=O` (stereo unspecified) was > 80 µM (inactive); that for `C=CCN1C=C2C(=O)C(C)(OC(=O)CCC(=O)OC)C(=O)C(Br)=C2C=C1c1ccc(OC)cc1` (stereo unspecified) was > 80 µM (inactive); that for `NCCNc1ccc(C(=O)N2c3ccccc3Sc3ccccc32)cc1[N+](=O)[O-]` was 23.5 µM.
Consider `CCOc1ccc2ccccc2c1/C=N/NC(=O)c1ccncc1`, for which the IC50 was > 80 µM (inactive).
The value for `CN(C)S(=O)(=O)c1cccc(-n2sc3ccccc3c2=O)c1` was 12.8 µM; that for `CS(=O)(=O)c1ccc(N)c(SSc2cc(S(C)(=O)=O)ccc2N)c1` was 15.2 µM; that for `COc1cccc(C(=O)Nc2nnc(S(=O)(=O)N(C)Cc3ccccc3)s2)c1` was 18.6 µM.
With `Oc1ccc(NCc2ccccc2OCc2ccccc2)cc1`, the IC50 is 53.9 µM.
The value for `c1cc2c(cc1NC1CCCCCC1)OCO2` was > 80 µM (inactive).
Regarding `CCc1nnc(NC(=O)c2ccc(Cl)nc2)s1`, the IC50 is > 80 µM (inactive).
`C#CCCc1cscc1/C=[N+](\[O-])c1ccc(C(=O)OCC)cc1`: the IC50 was 36.4 µM.
Turning to `COc1cccc2nc3cc(C)c(C)cc3nc12`, the IC50 was > 80 µM (inactive).
The value for `Cc1ccc(S(=O)(=O)N(C(=O)c2ccncc2)c2ccc(OC(=O)c3ccncc3)c3ccccc23)cc1` was 55.7 µM.
The value for `CCCn1cc(S(=O)(=O)CC(=O)Nc2ccc(OC)cc2OC)c2ccccc21` was > 80 µM (inactive); that for `Clc1ccc2nc(-c3ccc4c(c3)OCO4)cn2c1` was 40.7 µM.
The value for `CCC(c1ccc(O)c(O)c1)C(CC)c1ccc(O)c(O)c1` (stereo unspecified) was > 80 µM (inactive); that for `CCOc1ccccc1C=NNC(=O)CCCCC(=O)NN=Cc1ccccc1OCC` was > 80 µM (inactive).
Turning to `CC(=O)Nc1ccc(S(=O)(=O)NNc2cccc(C)c2)cc1`, the IC50 is > 80 µM (inactive).
For the compound `COc1cc(NCCCn2cnc(C(=O)Nc3ccc(C)c(C)c3)n2)cc(OC)c1OC`, the IC50 is > 80 µM (inactive).
The value for `N#CC1=C(N)Oc2c(O)cc3ccccc3c2C1c1ccsc1` (stereo unspecified) was 55.6 µM; that for `Cc1ccc(S(=O)(=O)SC/C=C/CSS(=O)(=O)c2ccc(C)cc2)cc1` was 73 µM.
The value for `CC1(C)CC2(CC(c3ccccc3F)c3ccc(O)c(O)c3O2)NC(=S)N1` (stereo unspecified) was 45.8 µM; that for `COc1cc(N=c2ssnc2Cl)cc(OC)c1OC` was 34 µM.
Take `CN1CC[C@@]2(C)c3cc(O)ccc3N(C)[C@@H]12`: the IC50 is 46.7 µM.
The value for `CCOc1ccccc1NC(=O)CCCc1nc2ccccc2c(=O)[nH]1` was > 80 µM (inactive); that for `COc1cc(/C=N/n2cc(-c3ccccc3)[nH]c2=S)cc(OC)c1O` was 11.2 µM; that for `O=C1C=CC(=O)N1c1ccc(N2CCCCC2)cc1` was 37 µM.

Source of the values: PubChem BioAssay AID540269 (Sanford-Burnham Center for Chemical Genomics, 2011).
